Consider seven compounds from patent publication US6335466B1, “Fluorinated amino polyhedral borate compounds” (Colorado State University Research Foundation, priority 2000, dated 2002).

Data set [1] is described as follows: Olefin polymerization catalyst activator test. The following applies: 20 μmole Zr, Zr/A/Al 1/4/250, MAO; listed as C. The text has this: All solvents used in synthesis and polymerization experiments were obtained when possible as anhydrous grade and further purified as described below. Diethyl ether, hexanes and toluene were obtained from Aldrich Chemical Company (Milwaukee, Wis.) in Sure Seal® bottles as anhydrous grade. Solvents were further purified by passing through columns packed with activated A2 alumina and Q-5 catalyst which had been reduced tbennally under hydrogen. Methylliium in aiethyl ether, zirconecene dichloride, pentamethylcyclopentadienyl zirconium dichloride and methylaluminoxane (10 wt. % in toluene) were obtained from Aldrich Chemical Company and used without further purification. Methyllithium was titrated with an aqueous HCl standard (Aldrich Chemical Company) against a phenolphthalein indicator in order to determine the concentration prior to use. Tris(perfluorophenyl)borate (i.e., B2 borate) was obtained as a research sample from Albermarle (Baton Rouge, La.) (Lot # 29779501-10) and used without further purification.
The solvent for polymerization experiments was 2,2,4-trimethylpentane (i.e., iso-octane) which was obtained from Aldrich Chemical Company in 18 L Stainless Steel Kilo Lab® Cylinders as anhydrous grade. The polymerization solvent was further purified by passing through columns packed with activated 13× molecular sieves and Q-5 catalyst. Periodic checks were performed on the water content of the solvent by Karl Fischer Columbmetric Titration and determined to contain 3 ppm or less water after purification. Solids were stored, weighed and transferred in glove box equipped with a catalyst train under dry nitrogen. Polymerization stock solutions and compositions were prepared in septum fitted bottles in a glove box. All solutions were freshly prepared for each set of evaluations.
All solutions were prepared in a glove box under dry nitrogen in a glass narrow mouth bottle fitted with a septum. This solution was prepared by the dissolution of 63 mg of Cp2ZrMe2 in 50 mL of dry, nitrogen degassed toluene. The complex was completely miscible in the solvent. […]

For data set [2] the following is noted: comparison species; cited from earlier work.
Data set [3] can be described thus: Conductivity of glyme (DME) solutions. It is filed as physicochemical. From the text:
A calibrated Yellow Springs model 3403 conductivity cell (cell constant k=1.113) and a model 31 conductivity bridge were employed. The measurements were made in a nitrogen-filled glove box. […] The concentration dependence of the conductivity of a lithium salt in a dilute solution is expected to be linear. The conductivity of a 0.01 M glyme solution of LiB12F11NMe3 is therefore expected to be about 78 μS cm^−1. The conductivity of a 0.0050 M glyme solution LiB12F11NMe3 is approximately ten times higher than the conductivity of a 0.010 M glyme solution of lithium triflate (4 μS cm−1).
The conductivities of solutions of Li(Dd3NB12F11) and Li(Bn2HNB12F11) (the latter sample was contaminated with about 15% Li(BnH2NB12F11)) were measured using a similar procedure as that of Example 25. A calibrated Yellow Springs model 3403 conductivity cell (cell constant k=0.98 cm−1) and a Yellow Springs model 31 conductivity bridge was employed. The measurements were made in a nitrogen-filled glove box. The conductivities of glyme solutions of Li(Dd3NB12F11), Li(Bn2HNB12F11), and lithium salts of related anions are listed in Table 2.

Data set [4] is described as follows: Solubility in organic solvents and water. It is filed as physicochemical.
The mark [5] stands for this setting: lithium salts, 0.0100 M DME solutions, 25° C., nitrogen atm.

“And” between values parts separate entries of the source, which are not always exact repeats. Identical values can stand only once.

For the compound `Fc1c(F)c(F)c(OB(Oc2c(F)c(F)c(F)c(F)c2F)Oc2c(F)c(F)c(F)c(F)c2F)c(F)c1F` [B2 borate, Tris(perfluorophenyl)borate], in data set [1], the “Final Rate C2H4 uptake” value is 0.7 g/m and 0.9 g/m and 1.3 g/m and 0.8 g/m; the “Max Exotherm” value is 1 °C and 2 °C; the “Max Rate C2H4 uptake” value is 26.3 g/m and 21.7 g/m and 16.3 g/m and 24.9 g/m and 31.3 g/m.
For `S` [HS^−1], the “pKa value of selected acids” value in data set [2] is recorded as 19.0.
On to `F[P-](F)(F)(F)(F)F.[Li+]` [LiPF6], for which the conductivity in data set [3] (setting [5]) came out at 73 μS cm−1.
On to `CCCCN` [NH3Bu^+1], for which the “pKa value of selected acids” value in data set [2] is 10.8.
On to `CN` [NH3Me^+1], for which the “pKa value of selected acids” value in data set [2] is listed as 10.7.
On to `CCCC[N+](CCCC)(CCCC)CCCC.F[B-](F)(F)F` [[NBu4][BF4]], for which the “solubility in water relative to [NBu4][H3NB12F11]” value in data set [4] is recorded as “higher solubility”.
As to `O=S(=O)([O-])C(F)(F)F.[Li+]` [lithium triflate], the conductivity is given as 4 μS cm^−1 in data set [3] (0.010 M glyme solution) and 4 μS cm−1 in data set [3] (setting [5]).
